According to ChEMBL document CHEMBL1127663, “High-affinity and potent, water-soluble 5-amino-1,4-benzodiazepine CCKB/gastrin receptor antagonists containing a cationic solubilizing group” (J Med Chem, 1994):

How the values were obtained:
[1] = target: T1, Cholecystokinin receptor type A (Rattus norvegicus, UniProt P30551); assay: Binding activity against Cholecystokinin type A receptor from rat pancreas using [125]BH CCK-8s as radioligand.
T1 sequence (P30551 whole entry): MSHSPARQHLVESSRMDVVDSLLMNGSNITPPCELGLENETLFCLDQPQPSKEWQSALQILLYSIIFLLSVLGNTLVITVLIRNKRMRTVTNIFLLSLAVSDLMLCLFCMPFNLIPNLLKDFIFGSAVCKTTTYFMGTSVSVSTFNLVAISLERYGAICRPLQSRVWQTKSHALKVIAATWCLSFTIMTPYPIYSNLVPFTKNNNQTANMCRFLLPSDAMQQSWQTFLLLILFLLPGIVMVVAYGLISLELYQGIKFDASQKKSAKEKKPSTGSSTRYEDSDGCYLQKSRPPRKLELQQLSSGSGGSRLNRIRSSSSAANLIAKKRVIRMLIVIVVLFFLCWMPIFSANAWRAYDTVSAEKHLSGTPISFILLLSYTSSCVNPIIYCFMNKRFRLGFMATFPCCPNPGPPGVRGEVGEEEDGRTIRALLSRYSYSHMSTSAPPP

[2] = Binding activity against Cholecystokinin type B receptor from guinea pig cortex using [125]BH CCK-8s as radioligand.

Row | SMILES | IC50 [1] [µM] | IC50 [2] [µM]
1 | Cc1cccc(NC(=O)N[C@H]2N=C(N3CC4CCC(CC4)C3)c3ccccc3N(C)C2=O)c1 | 0.0065 | 
2 | Cc1cccc(NC(=O)N[C@@H]2N=C(C3CCCCC3)c3ccccc3N(C)C2=O)c1 |  | 0.00028
3 | Cc1cccc(NC(=O)NC2N=C(N3CCCCC3)c3ccccc3N(C)C2=O)c1 (centres undefined) | 0.017 | 
4 | Cc1cccc(NC(=O)NC2N=C(N3CC4CCC(CC4)C3)c3ccccc3N(C)C2=O)c1 (centres undefined) | 0.0199 | 
